Measured values from patent US11337427B2, “Antimicrobial agents and their use in therapy” (priority 2013, dated 2022).

Tests used:
E. coli BL21 (ripl) = assay: Overexpression of APIM peptides in E. coli (growth, OD); format: cell-based; settings: induced with 1 mM IPTG; no cell-penetrating peptide
Description: In order to verify further that the anti-microbial effect of the APIM peptides arises from the APIM sequence, peptides containing only the APIM sequence (i.e. without a cell-penetrating peptide) were over-expressed in E. coli using the expression vector pET28. The APIM peptide was expressed alone or as part of a fusion protein with EYFP. Expression of EYFP alone was used as a control.
The expression vectors containing the respective peptides were transfected into the bacterial strain E. coli BL21 (ripl). Single colonies, 4-6 of each strain, were inoculated in […] LB media (+Km/Clm) in 96 wells plates, and incubated at 37° C. Overnight cultures were diluted 1:100 and grown for 1 h before induction with 1 mM IPTG (initiating peptide expression). OD was measured every hour.

[1] = tested on: Saccharomyces cerevisiae wild type BY4743; assay: Yeast growth study in microplates (OD 600 nm); settings: for concentration required to retard growth of the yeast cells: agent alone, wild-type yeast
Procedure: Growth studies on wild-type (wt) yeast and the Hog1 mutant were performed. […] The OD (600 nm) in each well was read every 20 minutes using an integrated Beckman Coulter Paradigm microplate reader. The growth of the yeast strains in the microplates was monitored for approximately 25 hours.

[2] = tested on: Yeast cells (Saccharomyces cerevisiae); assay: Cellular import of FAM-labelled ATX-101 (laser scanning microscopy); format: cell-based; settings: FAM-labelled peptide, 1-2 minutes incubation
Procedure: Yeast cells (Saccharomyces cerevisiae) were grown in LB media. A fluorescently labelled APIM peptide (ATX-101-FAM) was added to the media and incubated for 1-2 minutes before an aliquot of cells was removed and analyzed on a Zeiss LSM 510 Meta laser scanning microscope equipped with a Plan-Apochromate 63×/1.4 oil immersion objective.

[3] = tested on: Staphylococcus aureus NCTC 6571; assay: MIC assay; settings: starting concentration 150 μg/ml
[4] = tested on: Staphylococcus aureus MRSA 1096; assay: MIC assay; settings: starting concentration 150 μg/ml
[5] = tested on: gram negative bacteria (Pseudomonas aeruginosa ATCC 15692, Acinetobacter baumanni ATCC 19606, Escherichia coli ATCC 25922, Pseudomonas aeruginosa TO-5A); assay: Robotic MIC assay, gram negative bacteria; settings: FIG. 4
[6] = tested on: gram positive bacteria (Enterococcus faecium CCUG 37832, Enterococcus faecium CTC 492, Micrococcus luteus ATCC 9341); assay: Robotic MIC assay, gram positive bacteria; settings: FIG. 5
E. coli NCIMB 12210 = settings: E. coli NCIMB 12210, FIG. 7

Molecule: RWLVP (APIM variant) [APIM variant over-expressed in E. coli]
- effect of overexpression on bacterial growth (E. coli BL21 (ripl)): particularly effective

Molecule: RWLVK (APIM variant)
- effect of overexpression on bacterial growth (E. coli BL21 (ripl)): inhibits bacterial growth

Molecule: N.N.[Cl][Pt][Cl] [cisplatin]
- concentration required to retard growth of the yeast cells [1]: 500 µM
- effect on growth of the yeast cells ([1]; cisplatin 125 μM alone): not sufficient to retard growth
- effect on growth of the yeast cells ([1]; cisplatin 2000 μM alone): growth is not completely inhibited

Molecule: Ac-MDRWLVKWKKKRKIRRRRRRRRRRR [ATX-101]
- cellular import [2]: imported into yeast cells
- Factor of inhibition [3]: 1
- Factor of inhibition [4]: 0.0625
- concentration from which growth is inhibited [5]: about 1 μM
- concentration from which growth is inhibited [6]: about 1 μM
- concentration required to retard growth of the yeast cells [1]: ≥ 20 µM
- reduction of the MIC for novobiocin (E. coli NCIMB 12210): 16 fold

Molecule: RWLTK (APIM variant) [APIM variant over-expressed in E. coli]
- effect of overexpression on bacterial growth (E. coli BL21 (ripl)): particularly effective

Molecule: RFSLK (APIM variant) [APIM variant over-expressed in E. coli]
- effect of overexpression on bacterial growth (E. coli BL21 (ripl)): particularly effective
